These results are taken from patent publication US9737535B2, “Methods for treating cancer using TOR kinase inhibitor combination therapy comprising administering substituted pyrazino[2,3-b]pyrazines” (Signal Pharmaceuticals, LLC, priority 2014, dated 2017).

SMILES strings stand for the structures. Structures can show the parent of a compound that is named as a salt.

Common to all, as to test: Anti-proliferation assay (ATPLite), Chalice synergy score
Common to all, as to assay type: cell-based

The subject of one assay is HCC70. As to conditions: Compound 1 in combination with second active agent; HCC-70; mean self-cross + 2σ threshold 3.45. From the text: (§1) Cells were thawed from a liquid nitrogen preserved state.
(§2) The calculation for synergy score is provided below.
(§3) If T≧V0:100*[1−(T−V0)/(V−V0)]

A further assay relates to Hs-578-T. As to conditions: Compound 1 in combination with second active agent, mean self-cross + 2σ threshold 4.09.
Excerpt: as §1, §2, §3

A further assay deals with MCF7. The note with it: Compound 1 in combination with second active agent, mean self-cross + 2σ threshold 3.07.
Excerpt: as §1, §2, §3

Another assay concerns MDA-MB-157. As to conditions: Compound 1 in combination with second active agent, mean self-cross + 2σ threshold 4.68.
Excerpt: as §1, §2, §3

A further assay deals with MDA-MB-231. The note with it: Compound 1 in combination with second active agent, mean self-cross + 2σ threshold 2.61.
Excerpt: as §1, §2, §3

The test system of the next assay is MDA-MB-436. The note with it: Compound 1 in combination with second active agent, mean self-cross + 2σ threshold 1.91.
Excerpt: as §1, §2, §3

Another assay relates to MDA-MB-468. The note with it: Compound 1 in combination with second active agent, mean self-cross + 2σ threshold 4.66.
Excerpt: as §1, §2, §3

The test system of another assay is BT-20. The arrangement: scale not given here. The note with it: Compound 1 in combination with the named second active agent, 72 h, mean of n = 3 experiments in triplicate.
Excerpt: as §1, §2, §3

The test system of another assay is HCC-1187. Further details: scale not given here. As to conditions: Compound 1 in combination with the named second active agent, 72 h, mean of n = 3 experiments in triplicate.
Excerpt: as §1, §2, §3

A further assay relates to HCC-1500. Further details: scale not given here. As to conditions: Compound 1 in combination with the named second active agent, 72 h, mean of n = 3 experiments in triplicate.
Excerpt: as §1, §2, §3

The subject of a further assay is BT-549. The note with it: Compound 1 in combination with the named second active agent, 72 h, mean of n = 3 experiments in triplicate.
Excerpt: as §1, §2, §3

Another assay relates to HCC-1428. The note with it: Compound 1 in combination with the named second active agent, 72 h, mean of n = 3 experiments in triplicate.
Excerpt: as §1, §2, §3

The subject of the next assay is HCC-1806. The note with it: Compound 1 in combination with the named second active agent, 72 h, mean of n = 3 experiments in triplicate.
Excerpt: as §1, §2, §3

For a further assay, the system named is HCC-1937. As to conditions: Compound 1 in combination with the named second active agent, 72 h, mean of n = 3 experiments in triplicate.
Excerpt: as §1, §2, §3

The subject of the next assay is BT-474. As to conditions: Compound 1 in combination with the named second active agent, 72 h, mean of n = 3 experiments in triplicate.
Excerpt: as §1, §2, §3

In the case of `O=C(/C=C/c1cccc(S(=O)(=O)Nc2ccccc2)c1)NO` [Belinostat], the Synergy score is listed as 10.10 in the assay on HCC70; 7.48 with Hs-578-T; 7.66 in the assay with MCF7; 7.58 with MDA-MB-157; 12.40 with MDA-MB-231; 7.84 in the assay with MDA-MB-436. Besides, in the assay on MDA-MB-468, the Synergy score is reported as 6.75.
With `O=C(NC(NC(=S)Nc1ccc(F)c([N+](=O)[O-])c1)C(Cl)(Cl)Cl)C(c1ccccc1)c1ccccc1` (stereo not drawn) [CGK733], the Synergy score in the assay on BT-20 came to 0.72; in the assay on HCC-1187, 2.01; in the assay on HCC-1500 it was 0.55; in the assay with BT-549, 1.74; with HCC-1428 it was 0.82; with HCC-1806, 1.51. The Synergy score is recorded as 1.48 in the assay with HCC-1937; 3.03 in the assay on HCC70; 2.45 in the assay on Hs-578-T; 0.66 in the assay on MCF7; 1.88 with MDA-MB-157; 1.64 with MDA-MB-231. For the same compound, the Synergy score with MDA-MB-436 is given as 0.84.
With `Nc1ccn([C@@H]2O[C@H](CO)[C@@H](O)C2(F)F)c(=O)n1` [Gemcitabine Hydrochloride], the Synergy score with BT-20 is reported as 1.85; in the assay with HCC-1187, 1.83; with HCC-1500, 3.72; with BT-474, 0.17; in the assay on BT-549, 1.86; in the assay with HCC-1806, 0.84. For the same compound, the Synergy score is on record as 3.78 with HCC-1937; 0.96 in the assay with Hs-578-T; 0.38 with MCF7; 2.53 in the assay with MDA-MB-157; 2.51 in the assay with MDA-MB-231; 3.05 in the assay with MDA-MB-436. Further, in the assay on MDA-MB-468, the Synergy score is reported as 5.52.
Turning to `C[C@@H]1CN(CC(=O)Nc2ccc3c(c2)Cc2cccc(-c4cc(=O)cc(N5CCOCC5)o4)c2S3)C[C@H](C)O1` [KU-60019], the Synergy score was determined as 0.05 in the assay with BT-20; 1.24 with HCC-1187; 0.98 in the assay with HCC-1500; 0.18 in the assay on BT-549; 0.11 in the assay on HCC-1428; 0.38 in the assay on HCC-1806. Moreover, the Synergy score in the assay on HCC-1937 was found to be 0.04; in the assay with HCC70, 0.21; in the assay with Hs-578-T, 0.11; in the assay on MCF7, 0.04; in the assay with MDA-MB-157, 0.13; in the assay on MDA-MB-231 it was 0.08. The values for the Synergy score in the assay on MDA-MB-436 and with MDA-MB-468 were 0.13 and 0.19, respectively.
As for `CC1=C(C(=O)Nc2cc3cn[nH]c3cc2F)C(c2ccc(C(F)(F)F)cc2)CC(=O)N1` (stereo not drawn) [GSK429286A], the Synergy score was 4.54 with HCC-1187; 0.19 with HCC-1500; 1.72 with BT-549; 0.51 with HCC-1806; 0.05 in the assay with HCC-1937; 3.35 in the assay on Hs-578-T. Besides, the Synergy score is 0.19 in the assay on MCF7; 1.95 with MDA-MB-157; 2.14 with MDA-MB-231; 0.57 with MDA-MB-436; 0.13 in the assay with MDA-MB-468.
As for `Nc1ccccc1NC(=O)c1ccc(CNC(=O)OCc2cccnc2)cc1` [MS-275], the Synergy score in the assay with HCC70 was determined as 9.37; in the assay on Hs-578-T it was 8.44; with MCF7, 7.69; with MDA-MB-157 it was 8.10; in the assay with MDA-MB-231 it was 11.70; in the assay on MDA-MB-436 it was 7.83. Also, the Synergy score in the assay with MDA-MB-468 worked out at 9.25.
Take `CCN(CCO)CCCOc1ccc2c(Nc3cc(CC(=O)Nc4cccc(F)c4)[nH]n3)ncnc2c1` [AZD1152-HQPA(Barasertib)]: the Synergy score came to 9.50 in the assay with HCC70; 2.43 in the assay with Hs-578-T; 2.57 in the assay with MCF7; 1.81 with MDA-MB-157; 1.42 with MDA-MB-231; 5.60 in the assay on MDA-MB-436. Besides, in the assay with MDA-MB-468, the Synergy score was determined as 9.13.
As to `CNC(=O)c1cc(Oc2ccc(NC(=O)Nc3ccc(Cl)c(C(F)(F)F)c3)cc2)ccn1` [Sorafenib], the Synergy score with BT-20 is reported as 1.16; with HCC-1500, 0.69; in the assay with BT-474 it was 2.32; in the assay with BT-549, 0.00; in the assay on HCC-1937, 2.10; in the assay with HCC70, 2.51. Also, the Synergy score worked out at 1.65 with Hs-578-T, 1.18 with MCF7, 0.56 with MDA-MB-157 and 1.55 in the assay with MDA-MB-231.
Consider `CC[C@@H]1C(=O)N(C)c2cnc(Nc3ccc(C(=O)NC4CCN(C)CC4)cc3OC)nc2N1C1CCCC1` [BI 2536], for which the Synergy score with BT-20 was 5.18; in the assay with HCC-1187 it was 3.28; in the assay with HCC-1500 it was 4.47; in the assay with BT-474, 9.25; in the assay with BT-549 it was 6.91; in the assay on HCC-1806, 0.43. The Synergy score with HCC-1937 came to 16.20; with HCC70 it was 12.60; in the assay with Hs-578-T it was 4.48; with MCF7, 3.30; with MDA-MB-157 it was 5.08; in the assay with MDA-MB-231 it was 2.92. Also, the values for the Synergy score in the assay with MDA-MB-436 and in the assay with MDA-MB-468 were 2.95 and 9.61, respectively.
Turning to `C[C@@H](Oc1cc(-c2cnn(C3CCNCC3)c2)cnc1N)c1c(Cl)ccc(F)c1Cl` [Crizotinib], the Synergy score in the assay on BT-20 came to 2.70; with HCC-1187, 2.32; in the assay with BT-474, 1.07; with BT-549 it was 0.94; in the assay on HCC-1806, 3.08; with HCC-1937, 2.90. For the same compound, the Synergy score in the assay on HCC70 was found to be 3.31; in the assay with MCF7, 3.06; in the assay with MDA-MB-157, 2.97; with MDA-MB-436, 1.30.
In the case of `N#Cc1c(O)c2c(-c3ccc(-c4ccccc4O)cc3)csc2[nH]c1=O` [Compound A769662], the Synergy score in the assay on BT-20 stood at 0.11; in the assay on HCC-1187 it was 3.70; in the assay on HCC-1500 it was 0.80; in the assay with BT-549, 0.29; in the assay with HCC-1428, 0.34; in the assay on HCC-1806, 0.54. The Synergy score is 0.07 with HCC-1937; 0.07 in the assay with HCC70; 0.39 in the assay with Hs-578-T; 0.46 in the assay with MCF7; 0.70 with MDA-MB-157; 0.17 in the assay with MDA-MB-231. Besides, the Synergy score with MDA-MB-436 is recorded as 0.06; in the assay with MDA-MB-468, 0.77.
In the case of `CCN(CCO)CCCOc1ccc2c(Nc3cc(CC(=O)Nc4cccc(F)c4)[nH]n3)ncnc2c1` [AZD1152-HQPA (Barasertib)], the Synergy score stood at 6.90 with BT-20; 6.69 with HCC-1187; 5.73 in the assay on HCC-1500; 1.51 in the assay on BT-474; 1.95 in the assay on HCC-1428; 1.32 in the assay with HCC-1806. The Synergy score in the assay on HCC-1937 is listed as 2.29.
On to `C/C=C1\NC(=O)[C@H]2CSSCC/C=C/[C@H](CC(=O)N[C@H](C(C)C)C(=O)N2)OC(=O)[C@H](C(C)C)NC1=O` [Romidepsin], for which the Synergy score turned out to be 6.74 with HCC70; 5.71 with MDA-MB-157; 9.27 with MDA-MB-231; 5.84 in the assay with MDA-MB-436; 7.26 in the assay on MDA-MB-468.
